Reference: the supplement of paper PMC10307832

Tests used:
Experiment in all cases: relative viability (nuclei count vs DMSO), 5 days (fraction); higher = more cells survive
[1] = test system: EMC-BAC-2
In short: (§1)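 For relative viability, nuclei counts in treated wells were divided by those in vehicle wells. Lung cancer cell lines had been pin-tool dosed in 1536-well plates the day after seeding and cultured for 5 days, then fixed and stained in one step (final 0.05% Triton X-100, 1% formaldehyde, 1 ug/ml Hoechst) and imaged at 4×. Doses were one drug alone or a fixed anchor-drug dose plus five library-drug doses (not always all listed) in √10 steps, and values are duplicate-plate medians.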

[2] = test system: EPLC-272H
In short: as §1

[3] = test system: HCC-44
In short: as §1

[4] = test system: LCLC-103H
In short: as §1

[5] = test system: NCI-H23
In short: as §1

[6] = test system: NCI-H322M
In short: as §1

[7] = test system: NCI-H2085
In short: as §1

[8] = test system: SK-MES-1
In short: as §1

[9] = test system: NCI-H1993
In short: as §1

[10] = test system: NCI-H2405
In short: as §1

[11] = test system: H3255
In short: as §1

[12] = test system: NCI-H650
In short: as §1

[13] = test system: LCLC-97TM1
In short: as §1

[14] = test system: ChaGo-K-1
In short: as §1

[15] = test system: HCC-827
In short: as §1

[16] = test system: NCI-H1395
In short: as §1

[17] = test system: NCI-H1793
In short: as §1

[18] = test system: UMC-11
In short: as §1

[19] = test system: NCI-H520
In short: as §1

[20] = test system: NCI-H1944
In short: as §1

[21] = test system: NCI-H2087
In short: as §1

[22] = test system: NCI-H1355
In short: as §1

[23] = test system: NCI-H1651
In short: as §1

Clc1ccc(Nc2nnc(Cc3ccncc3)c3ccccc23)cc1 [Vatalanib] + Nc1ncn([C@H]2C[C@H](O)[C@@H](CO)O2)c(=O)n1 [Decitabine] (partner 2 µM)
relative viability ([1]; first compound 0.04 µM): 0.984
relative viability ([1]; first compound 0.1265 µM): 0.952
relative viability ([1]; first compound 0.4 µM): 0.983
relative viability ([1]; first compound 4 µM): 0.956
relative viability ([2]; first compound 0.04 µM): 0.357
relative viability ([2]; first compound 0.1265 µM): 0.342
relative viability ([2]; first compound 0.4 µM): 0.35
relative viability ([2]; first compound 1.265 µM): 0.356
relative viability ([2]; first compound 4 µM): 0.378
relative viability ([3]; first compound 0.04 µM): 0.961
relative viability ([3]; first compound 0.1265 µM): 0.944
relative viability ([3]; first compound 0.4 µM): 0.976
relative viability ([3]; first compound 1.265 µM): 0.906
relative viability ([3]; first compound 4 µM): 0.961
relative viability ([4]; first compound 0.04 µM): 0.715
relative viability ([4]; first compound 0.1265 µM): 0.722
relative viability ([4]; first compound 0.4 µM): 0.759
relative viability ([4]; first compound 1.265 µM): 0.71
relative viability ([4]; first compound 4 µM): 0.725
relative viability ([5]; first compound 0.04 µM): 0.355
relative viability ([5]; first compound 0.1265 µM): 0.324
relative viability ([5]; first compound 0.4 µM): 0.314
relative viability ([5]; first compound 1.265 µM): 0.291
relative viability ([5]; first compound 4 µM): 0.348
relative viability ([6]; first compound 0.04 µM): 0.769
relative viability ([6]; first compound 0.1265 µM): 0.687
relative viability ([6]; first compound 0.4 µM): 0.786
relative viability ([6]; first compound 4 µM): 0.663
relative viability ([7]; first compound 0.04 µM): 0.556
relative viability ([7]; first compound 0.1265 µM): 0.552
relative viability ([7]; first compound 0.4 µM): 0.476
relative viability ([7]; first compound 1.265 µM): 0.52
relative viability ([7]; first compound 4 µM): 0.527
relative viability ([8]; first compound 0.04 µM): 0.358
relative viability ([8]; first compound 0.1265 µM): 0.342
relative viability ([8]; first compound 0.4 µM): 0.415
relative viability ([8]; first compound 1.265 µM): 0.287
relative viability ([8]; first compound 4 µM): 0.353
relative viability ([9]; first compound 0.04 µM): 0.57
relative viability ([9]; first compound 0.1265 µM): 0.607
relative viability ([9]; first compound 0.4 µM): 0.541
relative viability ([9]; first compound 1.265 µM): 0.488
relative viability ([9]; first compound 4 µM): 0.495
relative viability ([10]; first compound 0.04 µM): 0.725
relative viability ([10]; first compound 0.1265 µM): 0.744
relative viability ([10]; first compound 0.4 µM): 0.866
relative viability ([10]; first compound 4 µM): 0.732
relative viability ([11]; first compound 0.04 µM): 0.526
relative viability ([11]; first compound 0.1265 µM): 0.616
relative viability ([11]; first compound 0.4 µM): 0.515
relative viability ([11]; first compound 1.265 µM): 0.613
relative viability ([11]; first compound 4 µM): 0.551
relative viability ([12]; first compound 0.04 µM): 0.292
relative viability ([12]; first compound 0.1265 µM): 0.337
relative viability ([12]; first compound 0.4 µM): 0.306
relative viability ([12]; first compound 1.265 µM): 0.327
relative viability ([12]; first compound 4 µM): 0.334
relative viability ([13]; first compound 0.04 µM): 0.237
relative viability ([13]; first compound 0.1265 µM): 0.19
relative viability ([13]; first compound 0.4 µM): 0.25
relative viability ([13]; first compound 1.265 µM): 0.224
relative viability ([13]; first compound 4 µM): 0.232
relative viability ([14]; first compound 0.04 µM): 0.494
relative viability ([14]; first compound 0.1265 µM): 0.52
relative viability ([14]; first compound 0.4 µM): 0.533
relative viability ([14]; first compound 1.265 µM): 0.522
relative viability ([14]; first compound 4 µM): 0.527
relative viability ([15]; first compound 0.04 µM): 0.28
relative viability ([15]; first compound 0.1265 µM): 0.308
relative viability ([15]; first compound 1.265 µM): 0.266
relative viability ([15]; first compound 4 µM): 0.343
relative viability ([16]; first compound 0.04 µM): 0.718
relative viability ([16]; first compound 0.1265 µM): 0.702
relative viability ([16]; first compound 0.4 µM): 0.722
relative viability ([16]; first compound 4 µM): 0.665
relative viability ([17]; first compound 0.04 µM): 0.374
relative viability ([17]; first compound 0.1265 µM): 0.463
relative viability ([17]; first compound 0.4 µM): 0.599
relative viability ([17]; first compound 1.265 µM): 0.499
relative viability ([17]; first compound 4 µM): 0.463
relative viability ([18]; first compound 0.04 µM): 1.08
relative viability ([18]; first compound 0.1265 µM): 0.624
relative viability ([18]; first compound 0.4 µM): 0.462
relative viability ([18]; first compound 1.265 µM): 0.563
relative viability ([18]; first compound 4 µM): 0.619
relative viability ([19]; first compound 0.04 µM): 0.504
relative viability ([19]; first compound 0.1265 µM): 0.446
relative viability ([19]; first compound 0.4 µM): 0.581
relative viability ([19]; first compound 1.265 µM): 0.456
relative viability ([19]; first compound 4 µM): 0.529
relative viability ([20]; first compound 0.04 µM): 0.427
relative viability ([20]; first compound 0.1265 µM): 0.393
relative viability ([20]; first compound 0.4 µM): 0.476
relative viability ([20]; first compound 1.265 µM): 0.398
relative viability ([20]; first compound 4 µM): 0.419
relative viability ([21]; first compound 0.04 µM): 0.286
relative viability ([21]; first compound 0.1265 µM): 0.292
relative viability ([21]; first compound 0.4 µM): 0.273
relative viability ([21]; first compound 1.265 µM): 0.298
relative viability ([21]; first compound 4 µM): 0.275
relative viability ([22]; first compound 0.04 µM): 0.393
relative viability ([22]; first compound 0.1265 µM): 0.328
relative viability ([22]; first compound 0.4 µM): 0.343
relative viability ([22]; first compound 1.265 µM): 0.33
relative viability ([22]; first compound 4 µM): 0.356
relative viability ([23]; first compound 0.04 µM): 0.518
relative viability ([23]; first compound 0.1265 µM): 0.59
relative viability ([23]; first compound 0.4 µM): 0.495
relative viability ([23]; first compound 1.265 µM): 0.565
relative viability ([23]; first compound 4 µM): 0.668
